Experimental data: patent publication US9061030B2, “sGC stimulators” (IRONWOOD PHARMACEUTICALS, INC., priority 2010, dated 2015)

Columns and labels:
[1] = molecular target: T1, soluble guanylate cyclase (sGC) (Homo sapiens, UniProt Q02108+Q02153); experiment: sGC-HEK-cGMP assay; format: cell-based; conditions: HEK293 cells, 10 μM SNP, percentage of sGC activity obtained with positive control BAY 41-2272 (= 100%); for Emax at 10 µM: compound at 10 μM; for Emax at 30 µM: compound at 30 μM
T1 construct: endogenously expressing soluble guanylate cyclase (sGC); endogenous in cells; host or cells: HEK293
T1 sequence (Q02153 1-619): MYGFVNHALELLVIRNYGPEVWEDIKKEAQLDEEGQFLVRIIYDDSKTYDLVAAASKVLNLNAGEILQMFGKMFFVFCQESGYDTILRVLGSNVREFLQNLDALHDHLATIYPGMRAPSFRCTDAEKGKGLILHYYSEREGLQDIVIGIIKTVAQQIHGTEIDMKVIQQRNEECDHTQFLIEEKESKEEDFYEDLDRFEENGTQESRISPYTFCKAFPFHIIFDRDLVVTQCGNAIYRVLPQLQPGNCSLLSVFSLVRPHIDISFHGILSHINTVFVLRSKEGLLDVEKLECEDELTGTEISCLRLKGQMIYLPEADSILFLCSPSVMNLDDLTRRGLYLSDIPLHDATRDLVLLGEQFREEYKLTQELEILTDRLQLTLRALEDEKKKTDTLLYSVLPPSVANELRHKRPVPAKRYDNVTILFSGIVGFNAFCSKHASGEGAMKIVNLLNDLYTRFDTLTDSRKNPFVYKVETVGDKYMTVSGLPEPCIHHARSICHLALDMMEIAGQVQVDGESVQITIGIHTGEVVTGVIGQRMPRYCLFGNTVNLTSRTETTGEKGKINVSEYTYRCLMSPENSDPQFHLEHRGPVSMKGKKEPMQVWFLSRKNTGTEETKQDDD
T1 sequence (Q02108 1-690): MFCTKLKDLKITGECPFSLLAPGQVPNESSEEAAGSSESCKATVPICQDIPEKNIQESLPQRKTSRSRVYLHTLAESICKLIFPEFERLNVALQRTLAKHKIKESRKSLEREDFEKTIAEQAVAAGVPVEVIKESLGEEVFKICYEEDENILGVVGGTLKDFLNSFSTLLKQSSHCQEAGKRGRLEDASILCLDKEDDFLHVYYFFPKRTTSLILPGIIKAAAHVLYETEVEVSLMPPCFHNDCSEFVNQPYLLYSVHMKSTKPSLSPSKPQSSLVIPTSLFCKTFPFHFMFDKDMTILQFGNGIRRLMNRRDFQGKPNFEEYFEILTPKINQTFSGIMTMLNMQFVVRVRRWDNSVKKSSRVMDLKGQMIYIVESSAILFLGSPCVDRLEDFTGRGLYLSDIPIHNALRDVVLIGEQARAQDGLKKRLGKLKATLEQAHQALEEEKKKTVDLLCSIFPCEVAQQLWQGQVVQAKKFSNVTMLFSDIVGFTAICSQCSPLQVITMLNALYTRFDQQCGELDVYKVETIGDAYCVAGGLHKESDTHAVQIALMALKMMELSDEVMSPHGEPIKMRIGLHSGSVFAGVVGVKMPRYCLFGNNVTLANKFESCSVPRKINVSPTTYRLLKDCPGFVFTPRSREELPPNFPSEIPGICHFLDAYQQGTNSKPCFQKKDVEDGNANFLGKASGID
Description: Human embryonic kidney cells (HEK293), endogenously expressing soluble guanylate cyclase (sGC), were used to evaluate the activity of the test compounds. Compounds stimulating the sGC receptor should cause an increase in the intracellular concentration of cGMP. HEK 293 cells were seeded in Dulbecco's Modification of Eagle's Medium supplemented with fetal bovine serum (10% final) and L-glutamine (2 mM final) in a 200 μL volume at a density of 1×10^5 cells/well in a poly-D-lysine coated 96 well flat bottom plate and grown overnight at 37° C. Medium was aspirated and cells were washed with 1× Hank's Buffered Saline Salt Solution (200 μL). Cells were then incubated for 15 minutes at 37° C. with 0.5 mM 3-isobutyl-1-methylxanthine (200 μL). Test article was then added to the assay mixture (2 μL) and incubated in the presence of 10 μM Sodium Nitroprusside (SNP) at 37° C. for 10 minutes. After the 10 minute incubation, the assay mixture was aspirated and 0.1M HCl (200 μL) was added to the cells. The plate was incubated at 4° C. for 30 minutes in the 0.1M HCl to stop the reaction and lysed the cells. The plates were then centrifuged at 1,200 g for 5 minutes at room temperature. Supernatants were collected and transferred to a new flat bottom 96 well plate for analysis. Vehicle controls were carried out using DMSO (1%). A known sGC stimulator, BAY 41-2272, was used as the positive control.
Samples were diluted with an equal volume of 1 M Ammonium Acetate (pH 7) to neutralize samples for better chromatography. A 2×cGMP standard curve was prepared in 0.1 M HCl and then diluted with an equal volume of 1 M Ammonium Acetate, with the following final concentrations in nM: 1024, 512, 256, 128, 64, 32, 16, 8, 4, 2, 1.cGMP concentrations were determined from each sample using the LC/MS conditions (Table 2 below) and calculated standard curve. EC50 values were calculated from concentration-response curves generated with GraphPad Prism Software.
The biological activities of some of the compounds according to Formula IA or Formula IB determined with the sGC-HEK assay are summarized in Table 3 below.

[2] = molecular target: T2, Human soluble guanylate cyclase enzyme (hsGC) (Homo sapiens, UniProt Q02108+Q02153); experiment: Purified human sGC enzyme activity assay (with or without SNP); format: biochemical; conditions: 30 μM compound; for sGC Enzyme Activity Increase at 30 μM with SNP: 1 μM SNP, specific activity vs DMSO and SNP; for sGC Enzyme Activity Increase at 30 μM without SNP: specific activity vs DMSO control
T2 construct: purchased Enzo Inc. ALX-201-177
T2 sequence (Q02153 1-619): T1 sequence (Q02153 1-619)
T2 sequence (Q02108 1-690): T1 sequence (Q02108 1-690)
Description: Human soluble guanylate cyclase enzyme (hsGC) obtained from Enzo Inc. (P/N: ALX-201-177) was used to evaluate the activity of test compounds. The assay reactions contained 0.1 M Tris (pH 8.0), 0.5 mg/mL BSA (pH 8.0), 2 mM DTT, 2 mM MgCl2, 300 μM GTP, 1 mM 3-isobutyl-1-methylxanthine (IBMX) and 5 ng human soluble guanylate cyclase enzyme. Test compounds in DMSO were then added (2 μL, 10 or 30 μM final concentration) and incubated (200 μL, 96-well plate format) at 37° C. for 30 minutes. The controls were carried out using 2 μL DMSO. After the 30 minute incubation, the reaction was stopped with the addition of 200 μL of cold methanol. The plate was then centrifuged at 3,200 rpm for 10 minutes at room temperature. Supernatants (200 μL) were collected and transferred to a new 96 well plate for analysis.
An 8 point cGMP (Sigma-Aldrich P/N: G6129) standard curve was prepared in assay buffer ranging from 0.156-20 μM. Samples for the cGMP standard curve were then diluted with an equal volume of methanol resulting in final cGMP concentrations of 0.078-10 μM.
The cGMP standard curve was generated using GraphPad Prism Software.
Calculations: Specific Activity was determined by the amount of cGMP formed (nmoles) per mg of sGC per min. Enzyme activity “fold-change” was calculated by dividing the Specific Activity for a test compound by the Specific Activity of DMSO control.
The enzymatic activity fold-change of the purified human sGC enzyme determined in the presence of each of the test compounds individually at 10 or 30 μm without the addition of sodium nitroprusside (SNP), a nitric oxide donor, is presented in Table 5.
Enzyme assays were also performed as described above, but in the presence of 1 μM sodium nitroprusside (SNP). Enzymatic activity fold-changes are reported for selected test compounds in the presence of both SNP and the test compound. These were calculated by dividing the specific activity (activity increase) for the test compound dissolved in DMSO and SNP over the specific activity for the mixture of DMSO and SNP.

SMILES: Fc1ccccc1Cn1nc(-c2ccccn2)nc1-c1ccccc1 [Compound I-2]
- Emax at 10 µM [1]: 5 to 10%
- Emax at 30 µM [1]: 5 to 10%
- sGC Enzyme Activity Increase at 30 μM with SNP [2]: C (C = 2 to <5 fold increase)
- sGC Enzyme Activity Increase at 30 μM without SNP [2]: D (D = 5 to <10 fold increase)

SMILES: Fc1ccccc1Cn1nc(-c2cscn2)nc1-c1ccccn1 [Compound I-5]
- Emax at 10 µM [1]: 5 to 10%
- Emax at 30 µM [1]: 10 to 20%
- sGC Enzyme Activity Increase at 30 μM with SNP [2]: C (C = 2 to <5 fold increase)
- sGC Enzyme Activity Increase at 30 μM without SNP [2]: B (B = 1 to <2 fold increase)

SMILES: Fc1ccccc1Cn1nc(-c2ncco2)nc1-c1ccccn1 [Compound I-7]
- Emax at 10 µM [1]: 0 to 5%
- Emax at 30 µM [1]: 5 to 10%
- sGC Enzyme Activity Increase at 30 μM with SNP [2]: B (B = 1 to <2 fold increase)
- sGC Enzyme Activity Increase at 30 μM without SNP [2]: B (B = 1 to <2 fold increase)

SMILES: Fc1ccccc1Cn1nc(-c2ncco2)nc1-c1ncccn1 [Compound I-8]
- Emax at 10 µM [1]: 0 to 5%
- Emax at 30 µM [1]: 0 to 5%
- sGC Enzyme Activity Increase at 30 μM with SNP [2]: B (B = 1 to <2 fold increase)
- sGC Enzyme Activity Increase at 30 μM without SNP [2]: C (C = 2 to <5 fold increase)

SMILES: Fc1ccccc1Cn1nc(-c2ncccn2)nc1-c1ncco1 [Compound I-9]
- Emax at 10 µM [1]: 0 to 5%
- Emax at 30 µM [1]: 5 to 10%
- sGC Enzyme Activity Increase at 30 μM with SNP [2]: B (B = 1 to <2 fold increase)
- sGC Enzyme Activity Increase at 30 μM without SNP [2]: C (C = 2 to <5 fold increase)

SMILES: Fc1ccccc1Cn1nc(-c2ncccn2)nc1-c1ccco1 [Compound I-11]
- Emax at 10 µM [1]: 10 to 20%
- Emax at 30 µM [1]: 10 to 20%
- sGC Enzyme Activity Increase at 30 μM with SNP [2]: C (C = 2 to <5 fold increase)
- sGC Enzyme Activity Increase at 30 μM without SNP [2]: C (C = 2 to <5 fold increase)

SMILES: Fc1ccccc1Cn1nc(-c2cocn2)nc1-c1ccccn1 [Compound I-13, 4-(1-(2-fluorobenzyl)-5-(pyridin-2-yl)-1H-1,2,4-triazol-3-yl)oxazole]
- Emax at 10 µM [1]: 0 to 5%
- Emax at 30 µM [1]: 0 to 5%
- sGC Enzyme Activity Increase at 30 μM with SNP [2]: B (B = 1 to <2 fold increase)
- sGC Enzyme Activity Increase at 30 μM without SNP [2]: C (C = 2 to <5 fold increase)

SMILES: Nc1cccc(-c2nc(-c3nccs3)n(Cc3ccccc3F)n2)n1 [Compound I-14, 6-(1-(2-fluorobenzyl)-5-(thiazol-2-yl)-1H-1,2,4-triazol-3-yl)pyridin-2-amine]
- Emax at 10 µM [1]: 5 to 10%
- Emax at 30 µM [1]: 10 to 20%
- sGC Enzyme Activity Increase at 30 μM with SNP [2]: C (C = 2 to <5 fold increase)
- sGC Enzyme Activity Increase at 30 μM without SNP [2]: B (B = 1 to <2 fold increase)

SMILES: Fc1ccccc1Cn1nc(-c2ccccn2)nc1Br [Compound I-16, 2-(5-bromo-1-(2-fluorobenzyl)-1H-1,2,4-triazol-3-yl)pyridine]
- Emax at 10 µM [1]: 0 to 5%
- Emax at 30 µM [1]: 5 to 10%
- sGC Enzyme Activity Increase at 30 μM with SNP [2]: C (C = 2 to <5 fold increase)
- sGC Enzyme Activity Increase at 30 μM without SNP [2]: B (B = 1 to <2 fold increase)

SMILES: Fc1ccccc1Cn1nc(-c2nccs2)nc1-c1cccc(Br)n1 [Compound I-18, 2-(5-(6-bromopyridin-2-yl)-1-(2-fluorobenzyl)-1H-1,2,4-triazol-3-yl)thiazole]
- Emax at 10 µM [1]: 0 to 5%
- Emax at 30 µM [1]: 0 to 5%
- sGC Enzyme Activity Increase at 30 μM with SNP [2]: C (C = 2 to <5 fold increase)
- sGC Enzyme Activity Increase at 30 μM without SNP [2]: B (B = 1 to <2 fold increase)

SMILES: Fc1ccccc1Cn1nc(-c2cccc(Br)n2)nc1-c1nccs1 [Compound I-19, 2-(3-(6-bromopyridin-2-yl)-1-(2-fluorobenzyl)-1H-1,2,4-triazol-5-yl)thiazole]
- Emax at 10 µM [1]: 10 to 20%
- Emax at 30 µM [1]: 0 to 5%
- sGC Enzyme Activity Increase at 30 μM with SNP [2]: C (C = 2 to <5 fold increase)
- sGC Enzyme Activity Increase at 30 μM without SNP [2]: B (B = 1 to <2 fold increase)

SMILES: Fc1ccccc1Cn1nc(-c2cscn2)nc1-c1ncccn1 [Compound I-20]
- Emax at 10 µM [1]: 0 to 5%
- Emax at 30 µM [1]: 0 to 5%
- sGC Enzyme Activity Increase at 30 μM with SNP [2]: B (B = 1 to <2 fold increase)
- sGC Enzyme Activity Increase at 30 μM without SNP [2]: B (B = 1 to <2 fold increase)

SMILES: Fc1ccccc1Cn1nc(-c2ccccn2)nc1C1CC1 [Compound I-21]
- Emax at 10 µM [1]: 0 to 5%
- Emax at 30 µM [1]: 0 to 5%
- sGC Enzyme Activity Increase at 30 μM with SNP [2]: B (B = 1 to <2 fold increase)
- sGC Enzyme Activity Increase at 30 μM without SNP [2]: B (B = 1 to <2 fold increase)

SMILES: Fc1ccccc1Cn1nc(-c2ccccn2)nc1C1CCC1 [Compound I-24]
- Emax at 10 µM [1]: 5 to 10%
- Emax at 30 µM [1]: 10 to 20%
- sGC Enzyme Activity Increase at 30 μM with SNP [2]: C (C = 2 to <5 fold increase)
- sGC Enzyme Activity Increase at 30 μM without SNP [2]: C (C = 2 to <5 fold increase)

SMILES: NC(=O)c1ccnc(-c2nc(-c3nccs3)n(Cc3ccccc3F)n2)c1 [Compound I-64, 2-(1-(2-fluorobenzyl)-5-(thiazol-2-yl)-1H-1,2,4-triazol-3-yl)isonicotinamide]
- Emax at 10 µM [1]: 10 to 20%
- Emax at 30 µM [1]: 5 to 10%

SMILES: Nc1ccnc(-c2nc(-c3cocn3)n(Cc3ccccc3F)n2)c1 [Compound I-66, 2-(1-(2-fluorobenzyl)-5-(oxazol-4-yl)-1H-1,2,4-triazol-3-yl)pyridin-4-amine]
- Emax at 10 µM [1]: 40 to 60%
- Emax at 30 µM [1]: 40 to 60%
